What was measured:
Experiment in all cases: relative viability (nuclei count vs DMSO), 5 days (fraction); higher = more cells survive
OSI-027 + Linsitinib = compound: COc1cccc2cc(-c3nc([C@H]4CC[C@H](C(=O)O)CC4)n4ncnc(N)c34)[nH]c12 [OSI-027] + C[C@]1(O)C[C@@H](c2nc(-c3ccc4ccc(-c5ccccc5)nc4c3)c3c(N)nccn32)C1 [Linsitinib] (partner 1 µM)
Procedure, shortened: (§1)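 Five library-drug doses in √10 steps were combined with a fixed anchor-drug dose, or a single drug was given alone, by pin tool to lung cancer cell lines in 1536-well plates the day after seeding. Nuclei were stained and counted after 5 days. Relative viability is the nuclei count in treated wells over that in vehicle wells, taken as the median of duplicate plates.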

[1] = compound: CCCS(=O)(=O)Nc1ccc(F)c(C(=O)c2c[nH]c3ncc(-c4ccc(Cl)cc4)cc23)c1F [Vemurafenib] + CC(=O)c1c(C)c2cnc(Nc3ccc(N4CCNCC4)cn3)nc2n(C2CCCC2)c1=O [Palbociclib] (partner 0.5 µM)
Procedure, shortened: as §1

OSI-027 + Pictilisib = compound: COc1cccc2cc(-c3nc([C@H]4CC[C@H](C(=O)O)CC4)n4ncnc(N)c34)[nH]c12 [OSI-027] + CS(=O)(=O)N1CCN(Cc2cc3nc(-c4cccc5[nH]ncc45)nc(N4CCOCC4)c3s2)CC1 [Pictilisib] (partner 1 µM)
Procedure, shortened: as §1

OSI-027 + Luminespib = compound: COc1cccc2cc(-c3nc([C@H]4CC[C@H](C(=O)O)CC4)n4ncnc(N)c34)[nH]c12 [OSI-027] + CCNC(=O)c1noc(-c2cc(C(C)C)c(O)cc2O)c1-c1ccc(CN2CCOCC2)cc1 [Luminespib] (partner 0.01 µM)
Procedure, shortened: as §1

Row | Cell Line | relative viability (OSI-027 + Linsitinib; first compound 0.01 µM) | relative viability (OSI-027 + Linsitinib; first compound 0.03162 µM) | relative viability (OSI-027 + Linsitinib; first compound 0.1 µM) | relative viability (OSI-027 + Linsitinib; first compound 0.3162 µM) | relative viability (OSI-027 + Linsitinib; first compound 1 µM) | relative viability ([1]; first compound 0.03162 µM) | relative viability ([1]; first compound 0.1 µM) | relative viability ([1]; first compound 0.3162 µM) | relative viability ([1]; first compound 1 µM) | relative viability (OSI-027 + Pictilisib; first compound 0.01 µM) | relative viability (OSI-027 + Pictilisib; first compound 0.03162 µM) | relative viability (OSI-027 + Pictilisib; first compound 0.1 µM) | relative viability (OSI-027 + Pictilisib; first compound 0.3162 µM) | relative viability (OSI-027 + Pictilisib; first compound 1 µM) | relative viability (OSI-027 + Luminespib; first compound 0.01 µM) | relative viability (OSI-027 + Luminespib; first compound 0.03162 µM) | relative viability (OSI-027 + Luminespib; first compound 0.1 µM) | relative viability (OSI-027 + Luminespib; first compound 0.3162 µM) | relative viability (OSI-027 + Luminespib; first compound 1 µM)
1 | RERF-LC-KJ | 0.839 | 0.776 | 0.655 | 0.503 | 0.376 | 1.03 | 0.968 | 1.07 | 1.11 | 0.508 | 0.542 | 0.492 | 0.393 | 0.344 | 1.41 | 1.09 | 1.08 | 1.09 | 0.459
2 | NCI-H1944 | 1.11 | 1.14 | 1.05 | 0.771 | 0.836 | 0.332 |  | 0.313 | 0.385 | 0.369 | 0.349 | 0.32 | 0.287 | 0.247 | 0.856 | 0.82 | 0.537 | 0.534 | 0.273
3 | HARA | 0.894 | 0.803 | 0.908 | 0.831 | 0.201 | 0.26 | 0.17 | 0.304 | 0.318 | 0.334 | 0.402 | 0.397 | 0.242 | 0.258 | 0.683 | 0.839 | 0.706 | 0.449 | 0.22
4 | A-427 | 1.15 | 1.08 | 1.05 | 0.746 | 0.882 | 0.525 | 0.481 |  | 0.553 | 0.61 | 0.664 | 0.699 | 0.495 | 0.378 | 0.92 | 0.891 | 0.811 | 0.61 | 0.505
5 | NCI-H2023 | 0.622 | 0.507 | 0.566 | 0.292 | 0.143 | 0.332 | 0.33 | 0.39 | 0.38 | 0.23 | 0.229 | 0.181 | 0.155 | 0.0973 | 0.812 | 0.59 | 0.646 | 0.709 | 0.27
6 | NCI-H2347 | 1.03 | 0.877 | 0.883 | 0.885 | 0.521 | 0.427 | 0.429 | 0.44 | 0.498 | 0.559 | 0.589 | 0.411 | 0.324 | 0.313 | 0.283 | 0.339 | 0.604 | 0.279 | 0.288

— the supplement of paper PMC10307832
